This note sets out measurements from US11787762B2, “Tetralin and tetrahydroquinoline compounds as inhibitors of HIF-2alpha” (ARCUS BIOSCIENCES, INC., priority 2020, dated 2023).

One may read the IC50 as the concentration needed to halve the response being measured.

T1 sequence (Q99814 whole entry): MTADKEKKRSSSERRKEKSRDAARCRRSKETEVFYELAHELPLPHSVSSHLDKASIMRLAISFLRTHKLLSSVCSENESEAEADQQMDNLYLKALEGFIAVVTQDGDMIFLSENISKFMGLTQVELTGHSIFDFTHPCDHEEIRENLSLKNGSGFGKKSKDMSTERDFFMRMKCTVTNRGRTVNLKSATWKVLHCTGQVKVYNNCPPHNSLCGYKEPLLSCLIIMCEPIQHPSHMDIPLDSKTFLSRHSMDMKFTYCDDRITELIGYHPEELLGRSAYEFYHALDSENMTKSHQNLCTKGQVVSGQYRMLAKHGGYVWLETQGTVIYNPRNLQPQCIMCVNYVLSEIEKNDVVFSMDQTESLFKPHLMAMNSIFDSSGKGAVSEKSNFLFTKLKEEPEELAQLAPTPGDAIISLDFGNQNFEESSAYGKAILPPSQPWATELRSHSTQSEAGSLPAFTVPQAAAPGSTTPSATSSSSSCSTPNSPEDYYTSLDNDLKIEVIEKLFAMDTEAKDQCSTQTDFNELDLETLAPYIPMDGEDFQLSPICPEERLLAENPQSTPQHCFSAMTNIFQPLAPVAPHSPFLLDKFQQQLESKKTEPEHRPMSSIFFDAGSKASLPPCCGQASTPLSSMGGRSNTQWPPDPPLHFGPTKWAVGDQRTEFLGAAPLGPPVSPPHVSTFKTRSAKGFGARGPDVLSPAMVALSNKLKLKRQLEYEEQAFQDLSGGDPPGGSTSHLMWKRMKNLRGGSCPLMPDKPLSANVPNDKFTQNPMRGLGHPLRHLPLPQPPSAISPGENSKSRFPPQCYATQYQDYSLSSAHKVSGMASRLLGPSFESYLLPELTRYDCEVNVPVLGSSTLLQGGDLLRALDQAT

This assay addresses T1, HIF-2α (Homo sapiens, UniProt Q99814).
T1 construct: host or cells: 786-O cells stably transduced with Cignal Lenti HIF Luc Reporter (only the reporter was introduced, not HIF-2α)
Briefly: HIF-2α luciferase reporter assay in HIF-Luc-786-O cells. The assay is classed as cell-based. The following applies: Table 3, 20 hours incubation. The procedure:
Generation of HIF-2α Luciferase 786-O Cell Line:
Stable cell lines were generated by transducing 786-O cells (ATCC, CRL-1932) with Cignal Lenti HIF Luc Reporter lentivirus (CLS-007 L, Qiagen) according to the manufacturer's guidelines. In brief, 0.3×10^6 786-0 cells were transduced with lentivirus at a Multiplicity of Infection (MOI) of 25 for 24 hours. After transduction, cells were replenished with fresh RPMI 1640 Medium (Cat. No. 11875085, Thermo Fisher,) supplemented with 10% FBS (Cat. No. A3160502, Gibco), 2 mM GlutaMax (Cat. No. 35050-061, Invitrogen) and 100 units of penicillin and 100 μg of streptomycin/mL (Cat. No 15070063, Thermo Fisher) for another 24 hours. Antibiotic selection was performed in cell media containing 4 μg/mL of Puromycin. After 7 days of antibiotic selection, stable pools of surviving cells were expanded and used in a luciferase reporter assay.
HIF-2α Luciferase Reporter Assay:
On day one, 20 uL of HIF-Luc-786-0 cells in OptiMem (Cat. No. 31985088, Thermo Fisher) were seeded into each well of a 384 well white opaque plate (Corning 3570) and incubated at 37° C. and 5% CO2. Twenty microliters of 2× test compounds in OptiMem were added to cells after 4 hours of incubation. Final assay conditions comprised 20,000 cells per well in 1% DMSO with test compound concentrations ranging from 50 uM to 0 uM. After 20 hours incubation at 37° C. and 5% CO2, luciferase activity was determined using ONE-Glo Luciferase Assay Reagent (E6110, Promega) following the manufacture's recommended procedure. Briefly, 40 uL of ONE-Glo luciferase reagents were added to each well and luciferase signals were measured using an Envision 2102 Multilabel Reader. Percentage maximum activity in each test well was calculated based on DMSO (maximum activity) and no cell control wells (baseline activity). The IC50 values of the test compounds were determined from compound dose response curves fitted using a standard four parameter fit equation.
Background: A reporter such as luciferase makes a cellular process visible.
As for `N#Cc1cc(F)cc2c1[C@@H](c1ccc(-c3cccnc3C#N)c3c1CC(F)(F)[C@H]3O)CC[C@@H]2F` [Example 184, 3-[(3S)-7-[(1R,4S)-8-cyano-4,6-difluoro-1,2,3,4-tetrahydronaphthalen-1-yl]-2,2-difluoro-3-hydroxy-1,3-dihydroinden-4-yl]pyridine-2-carbonitrile], the IC50 is under 100 nM.

With `Cc1ccc([C@H]2CC[C@H](F)c3cc(F)cc(C#N)c32)c2c1[C@H](O)C(F)(F)C2` [Example 225, (5S,8R)-8-[(1S)-2,2-difluoro-1-hydroxy-7-methyl-1,3-dihydroinden-4-yl]-3,5-difluoro-5,6,7,8-tetrahydronaphthalene-1-carbonitrile], the IC50 is under 100 nM.

Consider `N#Cc1cc(F)cc2c1[C@@H](c1ccc(-c3ccccc3CN)c3c1CC(F)(F)[C@H]3O)CC[C@@H]2F` [Example 165, (5S,8R)-8-[(1S)-7-[2-(aminomethyl)phenyl]-2,2-difluoro-1-hydroxy-2,3-dihydro-1H-inden-4-yl]-3,5-difluoro-5,6,7,8-tetrahydronaphthalene-1-carbonitrile], for which the IC50 lay within 100 to 1000 nM.

`Cn1cc(-c2c(F)cc([C@H]3CC[C@H](F)c4cc(F)cc(C#N)c43)c3c2[C@H](O)C(F)(F)C3)nn1` [Example 202, (5S,8R)-3,5-Difluoro-8-[(1S)-2,2,6-trifluoro-1-hydroxy-7-(1-methyltriazol-4-yl)-1,3-dihydroinden-4-yl]-5,6,7,8-tetrahydronaphthalene-1-carbonitrile]: the IC50 is under 100 nM.

In turn, `Cc1nc(N)ccc1-c1c(F)cc([C@H]2CC[C@H](F)c3cc(F)cc(C#N)c32)c2c1[C@H](O)C(F)(F)C2` [Example 203, (5S,8R)-8-[(1S)-7-(6-amino-2-methylpyridin-3-yl)-2,2,6-trifluoro-1-hydroxy-1,3-dihydroinden-4-yl]-3,5-difluoro-5,6,7,8-tetrahydronaphthalene-1-carbonitrile] showed an IC50 of under 100 nM.

Consider `Cc1nc(N)cnc1-c1ccc([C@H]2CC[C@H](F)c3cc(F)cc(C#N)c32)c2c1[C@H](O)C(F)(F)C2` [Example 179, (5S,8R)-8-[(1S)-7-(5-amino-3-methylpyrazin-2-yl)-2,2-difluoro-1-hydroxy-1,3-dihydroinden-4-yl]-3,5-difluoro-5,6,7,8-tetrahydronaphthalene-1-carbonitrile], for which the IC50 is under 100 nM.

`N#Cc1cc(F)cc2c1[C@@H](c1ccc(-c3cccc4scnc34)c3c1CC(F)(F)[C@H]3O)CC[C@@H]2F` [Example 190, (5S,8R)-8-[(1S)-7-(1,3-benzothiazol-4-yl)-2,2-difluoro-1-hydroxy-1,3-dihydroinden-4-yl]-3,5-difluoro-5,6,7,8-tetrahydronaphthalene-1-carbonitrile] came in with an IC50 of 100 to 1000 nM.

In the case of `Cc1ncc(-c2ccc([C@H]3CC[C@H](F)c4cc(F)cc(C#N)c43)c3c2[C@H](O)C(F)(F)C3)n1C` [Example 236, (5S,8R)-8-[(1S)-7-(2,3-dimethylimidazol-4-yl)-2,2-difluoro-1-hydroxy-1,3-dihydroinden-4-yl]-3,5-difluoro-5,6,7,8-tetrahydronaphthalene-1-carbonitrile], the IC50 is under 100 nM.

Compound `CS(=O)(=O)c1c(F)cc([C@H]2CC[C@H](F)c3cc(F)cc(C#N)c32)c2c1[C@H](O)[C@H](F)C2` [Example 211, (5S,8R)-8-[(1S,2R)-2,6-Difluoro-1-hydroxy-7-methylsulfonyl-2,3-dihydro-1H-inden-4-yl]-3,5-difluoro-5,6,7,8-tetrahydronaphthalene-1-carbonitrile] displayed an IC50 of under 100 nM.

In turn, `N#Cc1cc(F)cc2c1[C@@H](c1ccc(-c3ccncc3)c3c1CC(F)(F)[C@H]3O)CC[C@@H]2F` [Example 156, (5S,8R)-8-[(1S)-2,2-difluoro-1-hydroxy-7-pyridin-4-yl-1,3-dihydroinden-4-yl]-3,5-difluoro-5,6,7,8-tetrahydronaphthalene-1-carbonitrile] returned an IC50 of 100 to 1000 nM.

Regarding `N#Cc1cc(F)cc2c1[C@@H](c1ccc(-c3cnc4cccnn34)c3c1CC(F)(F)[C@H]3O)CC[C@@H]2F` [Example 237, (5S,8R)-8-[(1S)-2,2-difluoro-1-hydroxy-7-imidazo[1,2-b]pyridazin-3-yl-1,3-dihydroinden-4-yl]-3,5-difluoro-5,6,7,8-tetrahydronaphthalene-1-carbonitrile], the IC50 was under 100 nM.

`Cc1nc(N)ccc1-c1ccc([C@H]2C[C@H](F)[C@H](F)c3cc(F)cc(C#N)c32)c2c1[C@H](O)C(F)(F)C2` [Example 216, (5R,6S,8R)-8-[(1S)-7-(6-amino-2-methylpyridin-3-yl)-2,2-difluoro-1-hydroxy-2,3-dihydro-1H-inden-4-yl]-3,5,6-trifluoro-5,6,7,8-tetrahydronaphthalene-1-carbonitrile] gave an IC50 of under 100 nM.

The compound `Cn1ccnc1-c1ccc([C@H]2CC[C@H](F)c3cc(F)cc(C#N)c32)c2c1[C@H](O)C(F)(F)C2` [Example 238, (5S,8R)-8-[(1S)-2,2-difluoro-1-hydroxy-7-(1-methylimidazol-2-yl)-1,3-dihydroinden-4-yl]-3,5-difluoro-5,6,7,8-tetrahydronaphthalene-1-carbonitrile] came in with an IC50 of 100 to 1000 nM.

Turning to `Cc1ncn(C)c1-c1ccc([C@H]2CC[C@H](F)c3cc(F)cc(C#N)c32)c2c1[C@H](O)C(F)(F)C2` [Example 232, (5S,8R)-8-[(1S)-7-(3,5-dimethylimidazol-4-yl)-2,2-difluoro-1-hydroxy-1,3-dihydroinden-4-yl]-3,5-difluoro-5,6,7,8-tetrahydronaphthalene-1-carbonitrile], the IC50 is under 100 nM.

As for `N#Cc1cc(F)cc2c1[C@@H](c1ccc(-c3nccnc3N)c3c1CC(F)(F)[C@H]3O)CC[C@@H]2F` [Example 186, (5S,8R)-8-[(1S)-7-(3-aminopyrazin-2-yl)-2,2-difluoro-1-hydroxy-1,3-dihydroinden-4-yl]-3,5-difluoro-5,6,7,8-tetrahydronaphthalene-1-carbonitrile], the IC50 is under 100 nM.

Consider `Cc1c(C#N)cccc1-c1ccc([C@H]2CC[C@H](F)c3cc(F)cc(C#N)c32)c2c1[C@H](O)C(F)(F)C2` [Example 155, (5S,8R)-8-[(1S)-7-(3-cyano-2-methylphenyl)-2,2-difluoro-1-hydroxy-1,3-dihydroinden-4-yl]-3,5-difluoro-5,6,7,8-tetrahydronaphthalene-1-carbonitrile], for which the IC50 is under 100 nM.

Consider `N#Cc1ccc(-c2ccc([C@H]3CC[C@H](F)c4cc(F)cc(C#N)c43)c3c2[C@H](O)C(F)(F)C3)c(N)c1` [Example 197, (5S,8R)-8-[(1S)-7-(2-amino-4-cyanophenyl)-2,2-difluoro-1-hydroxy-1,3-dihydroinden-4-yl]-3,5-difluoro-5,6,7,8-tetrahydronaphthalene-1-carbonitrile], for which the IC50 is under 100 nM.

The compound `Cc1ccc(-c2ccc([C@H]3CC[C@H](F)c4cc(F)cc(C#N)c43)c3c2[C@H](O)C(F)(F)C3)c(N)n1` [Example 185, (5S,8R)-8-[(1S)-7-(2-amino-6-methylpyridin-3-yl)-2,2-difluoro-1-hydroxy-1,3-dihydroinden-4-yl]-3,5-difluoro-5,6,7,8-tetrahydronaphthalene-1-carbonitrile] showed an IC50 of under 100 nM.

`Cc1scnc1-c1ccc([C@H]2CC[C@H](F)c3cc(F)cc(C#N)c32)c2c1[C@H](O)C(F)(F)C2` [Example 192, (5S,8R)-8-[(1S)-2,2-difluoro-1-hydroxy-7-(5-methyl-1,3-thiazol-4-yl)-1,3-dihydroinden-4-yl]-3,5-difluoro-5,6,7,8-tetrahydronaphthalene-1-carbonitrile] gave an IC50 of under 100 nM.

For the compound `N#Cc1cc(F)cc2c1[C@@H](c1ccc(-c3c(N)cccc3F)c3c1CC(F)(F)[C@H]3O)CC[C@@H]2F` [Example 196, (5S,8R)-8-[(1S)-7-(2-amino-6-fluorophenyl)-2,2-difluoro-1-hydroxy-1,3-dihydroinden-4-yl]-3,5-difluoro-5,6,7,8-tetrahydronaphthalene-1-carbonitrile], the IC50 is under 100 nM.

`N#Cc1cc(F)cc2c1[C@@H](c1cc(F)c(Cl)c3c1CC(F)(F)[C@H]3O)CC[C@@H]2F` [Example 207, (5S,8R)-8-[(1S)-7-chloro-2,2,6-trifluoro-1-hydroxy-1,3-dihydroinden-4-yl]-3,5-difluoro-5,6,7,8-tetrahydronaphthalene-1-carbonitrile] came in with a half-maximal inhibitory concentration (IC50) of under 100 nM.

With `N#Cc1cc(F)cc2c1[C@@H](c1ccc(-c3cnncc3N)c3c1CC(F)(F)[C@H]3O)CC[C@@H]2F` [Example 178, (5S,8R)-8-[(1S)-7-(5-aminopyridazin-4-yl)-2,2-difluoro-1-hydroxy-1,3-dihydroinden-4-yl]-3,5-difluoro-5,6,7,8-tetrahydronaphthalene-1-carbonitrile], the IC50 fell in the range of 100 to 1000 nM.
